# Results taken from patent US9173397B2, “Formulation component” (Syngenta Limited, priority 2011, dated 2015).
# Like-named read-outs stand apart in the source and are kept apart here.
# Assays:
# [1] = system: Chenopodium album, Abutilon theophrasti, Setaria viridis, Xanthium strumarium; experiment: Glasshouse weed kill, fomesafen with/without adjuvants (Example 4); format: in vivo
# Protocol: (§1) The efficacy of the aromatic acid ester Morflex ®560 (tri-n-hexyltrimellitate) as an adjuvant for the herbicide fomesafen was tested against four weed species in a glasshouse and compared to the well-know adjuvants, acetyl tributyl citrate and Turbocharge® which were added at concentrations of 0.2 and 0.5% w/w respectively. The adjuvant oils were emulsified using a small amount of the surfactant Pluronic® PE 10500, which was present in the composition at a concentration of 0.02% v/v.
# An agrochemical composition was prepared containing 0.2% v/v of the adjuvant in a track sprayer and was applied at a volume of 200 liters per hectare. Fomesafen was applied at either 60 or 120 grams of pesticide per hectare on each of the weed species. The weed species and their growth stage at spraying were Chenopodium album (CHEAL; growth stage 14), Abutilon theophrasti (ABUTH; growth stage 12), Setaria viridis (SETVI; growth stage 13), and Xanthium strumarium (XANST; growth stage 12).
# Each spray test was replicated three times. The efficacy of the herbicide was assessed visually and expressed as a percentage of the leaf area killed. Samples were assessed at time periods of 7, 14 and 21 days following application. […]
# [2] = system: Alopecurus myosuroides, Avena fatua, Lolium perenne, Setaria viridis; experiment: Glasshouse weed kill, pinoxaden with/without adjuvants (Example 6); format: in vivo
# Protocol: The efficacy of the aromatic ester tri-n-hexyltrimellitate (Morflex®560) was tested in a glasshouse against four weed species using the herbicide pinoxaden. An agrochemical composition was prepared containing 0.2% v/v of the adjuvant in a track sprayer and was applied at a volume of 200 liters per hectare. The adjuvant oils were emulsified using a small amount of the surfactant Pluronic® PE 10500, which was present in the composition at a concentration of 0.02% v/v. Pinoxaden was applied at either 7.5 or 15 grams of pesticide per hectare on each of the weed species. The weed species and their growth stage at spraying were Alopecurus myosuroides (ALOMY; growth stage 13), Avena fatua (AVEFA; growth stage 12); Lolium perenne (LOLPE; growth stage 13), Setaria viridis (SETVI; growth stage 14).
# Each spray test was replicated three times. The efficacy of the herbicide was assessed visually and expressed as a percentage of the leaf area killed. Samples were assessed at time periods of 14 and 21 days following application. The results shown in table 7 below are mean averages over the two rates of pinoxaden, three replicates, four weed species and the two assessment timings, and are compared to the efficacy of pinoxaden in the absence of adjuvant and pinoxaden in the presence of the known adjuvant acetyl tributyl citrate which was used at a concentration of 0.2% w/w.
# Tetranychus urticae = experiment: Mortality of two spotted spider mite on French bean plants, abamectin with/without Morflex 560; format: in vivo, Tetranychus urticae (on Phaseolus vulgaris); conditions: for % mortality of Tetranychus urticae: 10 days, larva and adults averaged, Morflex 560 0.1% v/v where present
# Protocol: The efficacy of tri-n-hexyltrimellitate (Morflex® 560) as an adjuvant in compositions containing abamectin was tested and compared to the efficacy of abamectin compositions which lack this type of adjuvant. The Morflex 560 was present at 0.1% v/v in the abamectin compositions. The surfactants polyoxyethylene sorbitan monooleate and an ethoxylated castor oil were also present in all the abamectin compositions tested. Two week old French bean (Phaseolus vulgaris) plants were infested with a mixed population of two spotted spider mite Tetranychus urticae. One day after infestation the plants were treated with the test compositions, with a track sprayer from the top with a rate of 200 liters per hectare. Plants were incubated in the greenhouse for 10 days and the evaluation was done on mortality against Larva and Adults, just on the lower side (untreated) of the leaves. Each experiment was replicated twice and the results were averaged. The mortality against Larva and Adults was then averaged.
# Septoria tritici = Septoria tritici infection of wheat plants, isopyrazam spray with/without adjuvants; format: in vivo, Septoria tritici (on wheat plants); conditions: conclusion from Table 2
# Protocol: The efficacy of the following aromatic acid esters tri-n-hexyltrimellitate (Morflex®560) and tri-isodecyl trimellitate (Morflex®530), as adjuvants in compositions comprising isopyrazam was tested and compared to the standard formulations (both EC and SC) of the fungicide, which lack this type of adjuvant.
# Wheat plants were inoculated with the fungus Septoria tritici. Five days after inoculation the plants were sprayed with a diluted emulsion concentrate or suspension concentrate formulation of the fungicide isopyrazam at rates of 3, 10, 30 and 100 mg of the fungicide per litre of spray solution, using a laboratory track sprayer which delivered the spray at a rate of 200 liters per hectare. Spray tests were also carried out with diluted suspension concentrate additionally comprising each of the benzoate adjuvants described above. These adjuvants were added to the spray solution at a rate of 0.5% w/w, based on the quantity of spray liquor. The adjuvant oils were emulsified using a small amount of the surfactant Pluronic® PE 10500, which was present in the composition at a concentration of 0.02% v/v. The leaves of the plants were assessed visually 14 days after the spray application and the damage was expressed as the percentage of the leaf area infected.
# [3] = system: Alopecurus myosuroides, Avena fatua, Lolium perenne, Setaria viridis; experiment: Glasshouse weed kill, pinoxaden with/without adjuvants (Example 8); format: in vivo; conditions: for adjuvant efficacy in words (pinoxaden): conclusion from Table 9
# Protocol: The efficacy of the aromatic esters tri-n-hexyltrimellitate (Morflex®560) and tri-isodecylmellitate (Morflex®530) as adjuvants for pinoxaden were tested in a glasshouse against four weed species. An agrochemical composition was prepared containing 0.2% v/v of the adjuvant in a track sprayer and was applied at a volume of 200 liters per hectare. Pinoxaden was applied at either 7.5 or 15 grams per hectare on each of the weed species. The weed species and their growth stage at spraying were Alopecurus myosuroides (ALOMY; growth stage 13), Avena fatua (AVEFA; growth stage 12); Lolium perenne (LOLPE; growth stage 13), Setaria viridis (SETVI; growth stage 14).
# Each spray test was replicated three times. The efficacy of the herbicide was assessed visually and expressed as a percentage of the leaf area killed. Samples were assessed at time periods of 7 and 14 days following application. The results shown in Table 9 below are mean averages over the two rates of pinoxaden, three replicates, four weed species and the two assessment timings. The results were compared to the efficacy of pinoxaden in the absence of an adjuvant and pinoxaden in the presence of either tri-2-ethylhexyl phosphate (applied at 0.5% v/v) or methyl oleate (applied at 0.2% v/v).
# [4] = system: Polygonum convolvulus, Brachiaria platyphylla, Digitaria sanguinalis, Amaranthus tuberculatus; experiment: Glasshouse weed kill, mesotrione with/without adjuvants (Example 5); format: in vivo
# Protocol: The efficacy of the aromatic ester tri-n-hexyltrimellitate (Morflex®560) was tested in a glasshouse against four weed species using the herbicide mesotrione. An agrochemical composition was prepared containing 0.2% v/v of the adjuvant in a track sprayer and was applied at a volume of 200 liters per hectare. The adjuvant oils were emulsified using a small amount of the surfactant Pluronic® PE 10500, which was present in the composition at a concentration of 0.02% v/v. Mesotrione was applied at either 45 or 90 grams of pesticide per hectare on weeds which had been grown to the 1.3 or 1.4 leaf stage. The weed species were Polygonum convolvulus (POLCO), Brachiaria platyphylla (BRAPL) Digitaria sanguinalis (DIGSA) and Amaranthus tuberculatus (AMATU).
# Each spray test was replicated three times. The efficacy of the herbicide was assessed visually and expressed as a percentage of the leaf area killed. Samples were assessed at time periods of 7, 14 and 21 days following application. The results shown in Table 6 below are mean averages over the two rates of mesotrione, three relicates, four weed species and the three assessment timings and are compared to the efficacy of mesotrione in the absence of an adjuvant, and mesotrione in the presence of the commercially available adjuvants acetyl tributyl citrate or Tween®20 which were used at concentrations of 0.2 and 0.5% w/w respectively.
# [5] = system: Abutilon theophrasti, Chenopodium album, Digitaria sanguinalis, Setaria viridis; format: in vivo; conditions: for adjuvant efficacy in words (nicosulfuron): conclusion from Table 8
# Protocol: The efficacy of the aromatic esters tri-n-hexyltrimellitate (Morflex®560) and tri-isodecylmellitate (Morflex®530) as adjuvants for nicosulfuron were tested in a glasshouse against four weed species. An agrochemical composition was prepared containing 0.2% v/v of the adjuvant in a track sprayer, and was applied at a volume of 200 liters per hectare. The adjuvant oils were emulsified using a small amount of the surfactant Pluronic® PE 10500, which was present in the composition at a concentration of 0.02% v/v. Nicosulfuron was applied at a rate of either 30 or 60 grams per hectare. The weed species and their growth stage at spraying were Abutilon theophrasti (ABUTH; growth stage 13), Chenopodium album (CHEAL; growth stage 14), Digitaria sanguinalis (DIGSA; growth stage 13), and Setaria viridis (SETVI; growth stage 13).
# Each spray test was replicated three times. The efficacy of the herbicide was assessed visually and expressed as a percentage of the leaf area killed. Samples were assessed at time periods of 14 and 21 days following application. […] In this experiment Atplus®411F was added at the higher rate of 0.5% v/v. The other adjuvants were added at 0.2% v/v.
# [6] = system: Abutilon theophrasti, Chenopodium album, Digitaria sanguinalis, Setaria viridis; experiment: Glasshouse weed kill, nicosulfuron with/without adjuvants (Example 3); format: in vivo
# Protocol: as §1, with “nicosulfruon” for “fomesafen”, “adjuvants, tris-2-ethylhexyl phosphate and” for “adjuvants,”, “citrate” for “citrate and Turbocharge®”, “tested” for “added”, “0.2% w/w.” for “0.2 and 0.5% w/w respectively.”
# An agrochemical composition was prepared containing 0.2% v/v of the adjuvant in a track sprayer, and was applied at a volume of 200 liters per hectare. Nicosulfuron was applied at a rate of either 30 or 60 grams of pesticide per hectare. The weed species and their growth stage at spraying were Abutilon theophrasti (ABUTH; growth stage 13), Chenopodium album (CHEAL; growth stage 14), Digitaria sanguinalis (DIGSA; growth stage 13), and Setaria viridis (SETVI; growth stage 13).
# Each spray test replicated three times. The efficacy of the herbicide was assessed visually and expressed as a percentage of the leaf area killed. Samples were assessed at time periods of 14 and 21 days following application. […]
compound,measurement,setting,value
"CCCCCCOC(=O)c1ccc(C(=O)OCCCCCC)c(C(=O)OCCCCCC)c1 [Tri-n-hexyltrimellitate, Tri-n-hexyl trimellitate]",adjuvant efficacy in words (fomesafen),[1]; conclusion from Table 5,as effective an adjuvant as Turbocharge® and better than acetyl tributyl citrate
same,adjuvant efficacy in words (pinoxaden),[2]; conclusion from Table 7,more effective an adjuvant than acetyl tributyl citrate
same,mortality of Tetranychus urticae,"Tetranychus urticae; composition without abamectin, 0.1% v/v Morflex 560",no mortality was observed
same,"adjuvant efficacy in words (abamectin, Tetranychus urticae)",Tetranychus urticae; conclusion from Table 10,provided effective control of Tetranychus urticae at much lower concentrations of abamectin than are required in the absence of adjuvant
same,"adjuvant efficacy in words (isopyrazam, S. tritici)",Septoria tritici,as efficacious as the commercial tank mix adjuvant Turbocharge®
same,adjuvant efficacy in words (pinoxaden),[3],increases the efficacy of pinoxaden
same,adjuvant efficacy in words (mesotrione),[4]; conclusion from Table 6,as effective an adjuvant as either acetyl tributyl citrate or Tween®20
same,adjuvant efficacy in words (nicosulfuron),[5],more effective an adjuvant than methyl oleate and as effective an adjuvant as Atplus®411F
same,adjuvant efficacy in words (nicosulfuron),[6]; conclusion from Table 4,as effective an adjuvant as either tris-2-ethylhexylphosphate or acetyl tributyl citrate
Abamectin,% mortality of Tetranychus urticae,Tetranychus urticae; abamectin 0.2 ppm,0%
same,% mortality of Tetranychus urticae,Tetranychus urticae; abamectin 0.4 ppm,0%
same,% mortality of Tetranychus urticae,Tetranychus urticae; abamectin 0.8 ppm,27%
same,% mortality of Tetranychus urticae,Tetranychus urticae; abamectin 1.5 ppm,70%
same,% mortality of Tetranychus urticae,Tetranychus urticae; abamectin 3 ppm,95%
"CCc1cc(C)cc(CC)c1-c1c(OC(=O)C(C)(C)C)n2n(c1=O)CCOCC2 [Pinoxaden, reference compound]","Mean percentage kill, mean across species","[2]; % leaf area killed, mean over pinoxaden 7.5 and 15 g/ha, 14 and 21 days, four species, adjuvant 0.2%",11.4 C %
same,"Mean percentage kill, mean across species","[3]; % leaf area killed, mean over pinoxaden 7.5 and 15 g/ha, 7 and 14 days, four species, adjuvant 0.2% v/v (tri-2-ethylhexyl phosphate 0.5% v/v)",2.3 D %
"COc1cc(OC)nc(NC(=O)NS(=O)(=O)c2ncccc2C(=O)N(C)C)n1 [Nicosulfuron, reference compound]","Mean percentage kill, mean across species","[5]; % leaf area killed, mean over nicosulfuron 30 and 60 g/ha, 14 and 21 days, four species, adjuvant 0.2% v/v (Atplus 411F 0.5% v/v)",31.1 E %
same,"Mean percentage kill, mean across species","[6]; % leaf area killed, mean over nicosulfuron 30 and 60 g/ha, 14 and 21 days, four species, adjuvant 0.2%",42.5 B %
"CS(=O)(=O)c1ccc(C(=O)C2C(=O)CCCC2=O)c([N+](=O)[O-])c1 [Mesotrione, reference compound]","Mean percentage kill, mean across species","[4]; % leaf area killed, mean over mesotrione 45 and 90 g/ha, 7, 14 and 21 days, four species, adjuvant 0.2% (Tween 20 0.5% w/w)",34.0 B %
CC(C)CCCCCCCOC(=O)c1ccc(C(=O)OCCCCCCCC(C)C)c(C(=O)OCCCCCCCC(C)C)c1 [Tri-isodecyl trimellitate],"adjuvant efficacy in words (isopyrazam, S. tritici)",Septoria tritici,as efficacious as the commercial tank mix adjuvant Turbocharge®
same,adjuvant efficacy in words (pinoxaden),[3],increases the efficacy of pinoxaden
same,adjuvant efficacy in words (nicosulfuron),[5],increases the efficacy of the herbicide nicosulfuron
"CS(=O)(=O)NC(=O)c1cc(Oc2ccc(C(F)(F)F)cc2Cl)ccc1[N+](=O)[O-] [Fomesafen, reference compound]","Mean percentage kill, mean across species","[1]; % leaf area killed, mean over fomesafen 60 and 120 g/ha, 7, 14 and 21 days, four species, adjuvant 0.2% (Turbocharge 0.5% w/w)",22.5 D %
